Tests used:
[1] = target: T1, serotonin (5-HT) reuptake (Rattus norvegicus, UniProt P31652); assay: Inhibition of serotonin (5HT) reuptake in synaptosomes from rat brain; type: biochemical; conditions: test concentration of 10 μM
T1 construct: synaptosomes are freshly isolated from areas of the rat brain; from tissue; host or cells: rat brain synaptosomes (P2 fraction)
Procedure: Binding data of the compounds on the μ opioid receptor and data on the inhibition of reuptake of serotonin (5-HT) are given in Table 1. The data for the μ receptor were measured at a test concentration of 1 μM, and those for the serotonin reuptake at 10 μM. The values are stated in % inhibition.
Inhibition of Serotonin (5HT) Reuptake
In order to be able to carry out these in vitro studies, synaptosomes are freshly isolated from areas of the rat brain. In each case a so-called “P2” fraction prepared in accordance with the instructions of Gray and Whittaker (E. G. Gray and V. P. Whittaker (1962) J. Anat. 76, 79-88) is prepared. For the NA uptake, these vesicular particles are isolated from the hypothalamus of male rat brains.
A detailed description of the method can be found in the literature (M. Ch. Frink, H.-H. Hennies, W. Englberger, M. Haurand and B. Wilffert (1996) Arzneim.-Forsch./Drug Res. 46 (III), 11, 1029-1036).

[2] = target: T2, bradykinin 1 receptor (B1R) of the rat (Rattus norvegicus, UniProt P97583); assay: Functional investigation on the rat bradykinin 1 receptor (B1R), Ca2+ FLIPR assay in CHO K1 rB1R cells; type: cell-based; conditions: B1R antagonism rat; test substance 10 μM; Ca2+ FLIPR, CHO K1 rB1R cells
T2 construct: expressed in transfected cells; host or cells: CHO K1 cells
T2 sequence (P97583 1-337): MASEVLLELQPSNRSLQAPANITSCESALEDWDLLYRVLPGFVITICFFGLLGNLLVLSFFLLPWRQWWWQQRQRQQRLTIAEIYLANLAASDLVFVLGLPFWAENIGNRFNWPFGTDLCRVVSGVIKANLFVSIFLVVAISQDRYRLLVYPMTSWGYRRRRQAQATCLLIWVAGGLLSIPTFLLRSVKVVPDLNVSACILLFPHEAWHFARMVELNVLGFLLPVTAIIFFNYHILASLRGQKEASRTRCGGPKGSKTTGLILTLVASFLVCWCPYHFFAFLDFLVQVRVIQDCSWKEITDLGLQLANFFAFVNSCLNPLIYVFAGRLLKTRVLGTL
Summary of the method: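 Peak Ca2+-dependent fluorescence in B1R-transfected CHO K1 cells measures antagonism of an EC80 agonist challenge given 10-20 min after compound. Agonist is Lys-Des-Arg9-bradykinin for human, Des-Arg9-bradykinin for rat receptor.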

T1 sequence (P31652 whole entry): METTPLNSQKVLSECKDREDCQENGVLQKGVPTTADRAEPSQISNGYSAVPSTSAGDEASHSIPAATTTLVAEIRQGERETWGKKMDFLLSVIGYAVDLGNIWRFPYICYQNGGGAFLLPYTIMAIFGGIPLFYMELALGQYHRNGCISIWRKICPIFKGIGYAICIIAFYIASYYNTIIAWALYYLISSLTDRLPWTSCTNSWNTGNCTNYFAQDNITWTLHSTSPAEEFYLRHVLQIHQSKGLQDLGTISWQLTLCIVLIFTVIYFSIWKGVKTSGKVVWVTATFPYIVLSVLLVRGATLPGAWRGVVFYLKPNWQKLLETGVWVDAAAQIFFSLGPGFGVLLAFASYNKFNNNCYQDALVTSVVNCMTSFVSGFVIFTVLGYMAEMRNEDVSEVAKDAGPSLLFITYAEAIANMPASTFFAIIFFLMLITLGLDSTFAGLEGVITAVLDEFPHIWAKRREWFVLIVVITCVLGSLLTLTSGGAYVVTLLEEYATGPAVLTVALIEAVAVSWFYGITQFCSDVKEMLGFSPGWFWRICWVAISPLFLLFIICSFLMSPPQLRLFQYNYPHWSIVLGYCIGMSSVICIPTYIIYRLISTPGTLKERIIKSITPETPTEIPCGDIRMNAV

| Structure (SMILES) | 5-HT (inhibition of reuptake of serotonin, % inhibition) [1] [%] | B1R Ant. r [10 μM] % Inhibition [2] [%] |
| --- | --- | --- |
| CN(C)C(c1ccccc1)C1CCC(CNC(=O)COCC2CCCN(S(=O)(=O)c3ccccc3)C2)CC1 (stereo not drawn) [Example 129, N((4((dimethylamino)(phenyl)methyl)cyclohexyl)methyl)-2-((1-(phenylsulfonyl)piperidin-3-yl)methoxy)acetamide] | 95 | 0 |
| Cc1ccc(S(=O)(=O)N(C)CCOCC(=O)NC2CCC(C(c3cccs3)N(C)C)CC2)cc1 (stereo not drawn) [Example 168, N-(4-((dimethylamino) (thiophen-2-yl)methyl)cyclohexyl)-2-(2-(N,4-dimethylphenylsulfamido)ethoxy)acetamide] | 85 | 16 |
| COc1cc(C)c(S(=O)(=O)N(CCOCC(=O)NCC2CCC(C(c3ccccc3)N(C)C)CC2)Cc2ccccc2)c(C)c1C (stereo not drawn) [Example 201] | 89 | 7 |
| CN(C)C(c1cccc(F)c1)C1CCC(CCNC(=O)COCC2CCCN2S(=O)(=O)c2ccc(Cl)c(Cl)c2)CC1 (stereo not drawn) [Example 202] | 98 | −15 |
| COc1ccc(S(=O)(=O)N2CCCCC2CCOCC(=O)NCC2CCC(C(c3cccc(F)c3)N(C)C)CC2)cc1 (stereo not drawn) [Example 203] | 93 | 55 |
| CN(C)C(c1cccc(F)c1)C1CCC(NC(=O)COC2CCN(S(=O)(=O)c3ccc(Cl)cc3)C2)CC1 (stereo not drawn) [Example 204] | 86 | −13 |
| CN(C)C(c1cccc(F)c1)C1CCC(NC(=O)COCCN(C)S(=O)(=O)c2ccc(F)cc2)CC1 (stereo not drawn) [Example 205] | 84 | 5 |
| COc1ccc(S(=O)(=O)N(C)CCOCC(=O)NC2CCC(C(c3cccs3)N(C)C)CC2)cc1OC (stereo not drawn) [Example 206] | 84 | 20 |
| CN(C)C(c1ccc(Cl)cc1)C1CCC(CNC(=O)COCCN(C)S(=O)(=O)c2c(Cl)cccc2Cl)CC1 (stereo not drawn) [Example 207] | 72 | 52 |
| CN(C)C(c1cccc(F)c1)C1CCC(NC(=O)COCCN(C)S(=O)(=O)c2c(Cl)cc(Cl)cc2Cl)CC1 (stereo not drawn) [Example 208] | 93 | 25 |
| CCN(CCOCC(=O)NCCC1CCC(C(c2cccc(F)c2)N(C)C)CC1)S(=O)(=O)c1c(C)cc(OC)c(C)c1C (stereo not drawn) [Example 209] | 94 | 60 |
| CN(C)C(c1cccc(F)c1)C1CCC(NC(=O)COCC2CCCN2S(=O)(=O)c2ccc(Cl)c(Cl)c2)CC1 (stereo not drawn) [Example 211] | 90 | 10 |
| COc1ccc(S(=O)(=O)N2CCCCC2CCOCC(=O)NC2CCC(C(c3ccc(F)cc3)N(C)C)CC2)cc1 (stereo not drawn) [Example 212] | 92 | 41 |
| COc1ccc(S(=O)(=O)N2CCCCC2CCOCC(=O)NCCC2CCC(C(c3cccc(F)c3)N(C)C)CC2)cc1 (stereo not drawn) [Example 213] | 98 | 49 |
| CN(C)C(c1cccs1)C1CCC(CCNC(=O)COC2CCCCC2N(C)S(=O)(=O)c2ccc(Cl)c(Cl)c2)CC1 (stereo not drawn) [Example 214] | 83 | 19 |
| CN(C)C(c1cccc(F)c1)C1CCC(CCNC(=O)COCCN(C)S(=O)(=O)c2ccc(OC(F)(F)F)cc2)CC1 (stereo not drawn) [Example 215] | 90 | 22 |
| Cc1ccc(S(=O)(=O)N2CCC(OCC(=O)NCCC3CCC(C(c4cccc(F)c4)N(C)C)CC3)C2)cc1 (stereo not drawn) [Example 216] | 87 | 12 |
| CN(C)C(c1cccc(F)c1)C1CCC(NC(=O)COCCN(C)S(=O)(=O)c2ccc(Cl)cc2Cl)CC1 (stereo not drawn) [Example 217] | 85 | 47 |
| CN(C)C(c1cccc(F)c1)C1CCC(CCNC(=O)COCCN(C)S(=O)(=O)c2ccc(F)cc2)CC1 (stereo not drawn) [Example 218] | 101 | 28 |
| CN(C)C(c1ccccc1)C1CCC(CNC(=O)COC2CCN(S(=O)(=O)c3ccc(F)cc3)C2)CC1 (stereo not drawn) [Example 219] | 96 | 14 |

| Structure (SMILES) | 5-HT (inhibition of reuptake of serotonin, % inhibition) [1] [%] | B1R Ant. r [10 μM] % Inhibition [2] [%] |
| --- | --- | --- |
| CN(C)C(c1cccc(F)c1)C1CCC(CNC(=O)COCC2CCCN(S(=O)(=O)c3ccccc3)C2)CC1 (stereo not drawn) [Example 220] | 95 | 7 |
| COc1cc(C)c(S(=O)(=O)N2CCCC(OCC(=O)NCCC3CCC(C(c4cccc(F)c4)N(C)C)CC3)C2)c(C)c1C (stereo not drawn) [Example 221] | 95 | 17 |
| COc1cc(C)c(S(=O)(=O)N2CCN(CCOCC(=O)NC3CCC(C(c4ccc(F)cc4)N(C)C)CC3)CC2)c(C)c1C (stereo not drawn) [Example 222] | 92 | 10 |
| COc1cc(C)c(S(=O)(=O)N2CCN(CCOCC(=O)NCC3CCC(C(c4cccc(F)c4)N(C)C)CC3)CC2)c(C)c1C (stereo not drawn) [Example 223] | 96 | −5 |
| COc1ccc(S(=O)(=O)N2CCCC2COCC(=O)NCCC2CCC(C(c3cccc(F)c3)N(C)C)CC2)cc1 (stereo not drawn) [Example 224] | 97 | 47 |
| CN(C)C(c1cccc(F)c1)C1CCC(CNC(=O)COC2CCN(S(=O)(=O)c3ccc(Cl)cc3Cl)C2)CC1 (stereo not drawn) [Example 225] | 85 | 17 |
| Cc1ccc(S(=O)(=O)N(C)CCOCC(=O)NC2CCC(C(c3cccc(F)c3)N(C)C)CC2)cc1 (stereo not drawn) [Example 226] | 91 | 24 |
| Cc1ccc(S(=O)(=O)N(C)CCOCC(=O)NCC2CCC(C(c3cccc(F)c3)N(C)C)CC2)cc1 (stereo not drawn) [Example 227] | 86 | 12 |
| COc1cc(C)c(S(=O)(=O)N(C)CCOCC(=O)NC2CCC(C(c3cccc(F)c3)N(C)C)CC2)c(C)c1 (stereo not drawn) [Example 228] | 85 | 99 |
| CN(C)C(c1cccc(F)c1)C1CCC(CNC(=O)COCCN(C)S(=O)(=O)c2ccc(F)cc2)CC1 (stereo not drawn) [Example 229] | 89 | 8 |
| CN(C)C(c1cccs1)C1CCC(CCNC(=O)COC2CCN(S(=O)(=O)c3ccccc3)CC2)CC1 (stereo not drawn) [Example 230] | 94 | −1 |
| CCN(CCOCC(=O)NCC1CCC(C(c2ccccc2)N(C)C)CC1)S(=O)(=O)c1c(C)cc(OC)c(C)c1C (stereo not drawn) [Example 231] | 83 | 29 |
| COc1cc(C)c(S(=O)(=O)N2CCC(OCC(=O)NCCC3CCC(C(c4cccc(F)c4)N(C)C)CC3)CC2)c(C)c1C (stereo not drawn) [Example 232] | 98 | 5 |
| COc1ccc(S(=O)(=O)N2Cc3ccccc3CC2COCC(=O)NC2CCC(C(c3ccc(F)cc3)N(C)C)CC2)cc1 (stereo not drawn) [Example 234] | 95 | 20 |
| Cc1cc(C)c(S(=O)(=O)N(C)CCOCC(=O)NC2CCC(C(c3cccs3)N(C)C)CC2)c(C)c1 (stereo not drawn) [Example 235] | 86 | −8 |
| COc1cc(C)c(S(=O)(=O)N(C)CCOCC(=O)NC2CCC(C(c3ccccc3)N(C)C)CC2)c(C)c1 (stereo not drawn) [Example 239] | 78 | 97 |
| Cc1ccc(S(=O)(=O)N(C)CCOCC(=O)NCCC2CCC(C(c3cccc(F)c3)N(C)C)CC2)cc1 (stereo not drawn) [Example 240] | 87 | −14 |
| CN(C)C(c1ccc(Cl)cc1)C1CCC(CCNC(=O)COCCN(C)S(=O)(=O)c2ccc(F)cc2)CC1 (stereo not drawn) [Example 241] | 102 | 8 |
| COc1ccc(S(=O)(=O)N(C)CCOCC(=O)NCC2CCC(C(c3ccccc3)N(C)C)CC2)cc1 (stereo not drawn) [Example 242] | 77 | 22 |

— patent US8106055B2, “Substituted amide compounds” (Gruenenthal GmbH, priority 2007, dated 2012)
